Measurements from article PMC8065100, “How cyanophage S-2L rejects adenine and incorporates 2-aminoadenine to saturate hydrogen bonding in its DNA” (Nature Communications, 2021).

Columns and labels:
[1] = molecular target: T1, DatZ (S-2L HD phosphohydrolase) (Cyanophage S-2L, UniProt A0A7U3TCA2); assay: X-ray crystal structure; hydrolysis to dA seen by HPLC; type: binding; conditions: crystals grown with 10 mM EDTA, pH 7; active site; partially occupied Zn2+ in site A; HPLC assay: 20 mM Tris pH 7, 5 mM MgCl2, 37 °C
T1 construct: full length 175 aa, synthetic codon-optimised gene, N-terminal 14-His tag removed by TEV, E. coli host, hexamer (D3)

[2] = molecular target: S-2L DatZ (dATP triphosphohydrolase, HD-domain phosphohydrolase of cyanophage S-2L) (cyanophage S-2L); assay: AUC + other: DLS; in vitro; stoichiometry worked out assuming a perfectly globular shape; conditions not given

Nc1ncnc2c1ncn2[C@H]1C[C@H](O)[C@@H](COP(=O)(O)OP(=O)(O)OP(=O)(O)O)O1 [dATP] was tested, and the “X-ray crystal structure; hydrolysis to dA seen by HPLC” value [1] was “we solved a third structure of DatZ, this time with bound dATP (PDB ID: 6ZPC”.
Work on “S-2L DatZ (dATP triphosphohydrolase, HD-domain phosphohydrolase of cyanophage S-2L) (enzyme)” yielded a stoichiometry N (protomers per oligomer) [2] of 5.9.
